Tests used:
Format in all cases: ADME
[1] = (§1) The drug is tested on Gemella haemolysans strain: DSM107751 for biotransformation under anaerobic condition. The drug concentrations were measured over 6 timepoints collected between 0 and 12 hours of incubation by liquid-chromatography-coupled mass spectrometry (LC–MS); set-up: dose 5 uM, timepoint 0, 1.5, 3, 6, 9, 12 hours; conditions: 5 µM
[2] = (§2) The drug is tested on Gemella morbillorum strain: DSM20572 for biotransformation under microaerobic condition. The drug concentrations were measured over 6 timepoints collected between 0 and 12 hours of incubation by liquid-chromatography-coupled mass spectrometry (LC–MS); set-up: dose 5 uM, timepoint 0, 1.5, 3, 6, 9, 12 hours; conditions: 5 µM
[3] = as §1, with “the gut metagenome community of A-04 with ENA study accession number: PRJEB31790” for “Gemella haemolysans strain: DSM107751”, “7” for “6”; set-up: dose 5 uM, timepoint 0, 0.75, 1.5, 3, 6, 9, 12 hours; conditions: 5 µM
[4] = The drug is tested on Gemella morbillorum strain: DSM20572 for biotransformation under anaerobic condition. The drug concentrations were measured over 6 timepoints collected between 0 and 12 hours of incubation by liquid-chromatography-coupled mass spectrometry (LC–MS); set-up: dose 5 uM, timepoint 0, 1.5, 3, 6, 9, 12 hours; conditions: 5 µM
[5] = The drug is tested on Ruminococcus gnavus strain: ATCC29149 for biotransformation under anaerobic condition. The drug concentrations were measured over 6 timepoints collected between 0 and 12 hours of incubation by liquid-chromatography-coupled mass spectrometry (LC–MS); set-up: dose 5 uM, timepoint 0, 1.5, 3, 6, 9, 12 hours; conditions: mediterraneibacter gnavus, 5 µM
[6] = The drug is tested on Bifidobacterium longum strain: DSM20088 for biotransformation under microaerobic condition. The drug concentrations were measured over 6 timepoints collected between 0 and 12 hours of incubation by liquid-chromatography-coupled mass spectrometry (LC–MS); set-up: dose 5 uM, timepoint 0, 1.5, 3, 6, 9, 12 hours; conditions: 5 µM
[7] = The drug is tested on Streptococcus anginosus strain: DSM20563 for biotransformation under anaerobic condition. The drug concentrations were measured over 6 timepoints collected between 0 and 12 hours of incubation by liquid-chromatography-coupled mass spectrometry (LC–MS); set-up: dose 5 uM, timepoint 0, 1.5, 3, 6, 9, 12 hours; conditions: 5 µM
[8] = The drug is tested on Faecalibacterium prausnitzii strain: DSM17677 for biotransformation under anaerobic condition. The drug concentrations were measured over 6 timepoints collected between 0 and 12 hours of incubation by liquid-chromatography-coupled mass spectrometry (LC–MS); set-up: dose 5 uM, timepoint 0, 1.5, 3, 6, 9, 12 hours; conditions: faecalibacterium duncaniae, 5 µM
[9] = as §1, with “the gut metagenome community of A-10 with ENA study accession number: PRJEB31790” for “Gemella haemolysans strain: DSM107751”, “7” for “6”; set-up: dose 5 uM, timepoint 0, 0.75, 1.5, 3, 6, 9, 12 hours; conditions: 5 µM
[10] = as §1, with “the gut metagenome community of T-02 with ENA study accession number: PRJEB31790” for “Gemella haemolysans strain: DSM107751”, “7” for “6”; set-up: dose 5 uM, timepoint 0, 0.75, 1.5, 3, 6, 9, 12 hours; conditions: 5 µM
[11] = as §1, with “the gut metagenome community of P-02 with ENA study accession number: PRJEB31790” for “Gemella haemolysans strain: DSM107751”, “7” for “6”; set-up: dose 5 uM, timepoint 0, 0.75, 1.5, 3, 6, 9, 12 hours; conditions: 5 µM
[12] = as §2, with “the gut metagenome community of A-09 with ENA study accession number: PRJEB31790” for “Gemella morbillorum strain: DSM20572”, “7” for “6”; set-up: dose 5 uM, timepoint 0, 0.75, 1.5, 3, 6, 9, 12 hours; conditions: 5 µM
[13] = The drug is tested on Clostridium ramosum strain: DSM1402 for biotransformation under anaerobic condition. The drug concentrations were measured over 6 timepoints collected between 0 and 12 hours of incubation by liquid-chromatography-coupled mass spectrometry (LC–MS); set-up: dose 5 uM, timepoint 0, 1.5, 3, 6, 9, 12 hours; conditions: thomasclavelia ramosa, 5 µM
[14] = as §2, with “the gut metagenome community of T-02 with ENA study accession number: PRJEB31790” for “Gemella morbillorum strain: DSM20572”, “7” for “6”; set-up: dose 5 uM, timepoint 0, 0.75, 1.5, 3, 6, 9, 12 hours; conditions: 5 µM
[15] = The drug is tested on Akkermansia muciniphila strain: DSM22959 for biotransformation under anaerobic condition. The drug concentrations were measured over 6 timepoints collected between 0 and 12 hours of incubation by liquid-chromatography-coupled mass spectrometry (LC–MS); set-up: dose 5 uM, timepoint 0, 1.5, 3, 6, 9, 12 hours; conditions: 5 µM
[16] = as §2, with “the gut metagenome community of P-04 with ENA study accession number: PRJEB31790” for “Gemella morbillorum strain: DSM20572”, “7” for “6”; set-up: dose 5 uM, timepoint 0, 0.75, 1.5, 3, 6, 9, 12 hours; conditions: 5 µM
[17] = The drug is tested on Parabacteroides distasonis strain: DSM20701 for biotransformation under anaerobic condition. The drug concentrations were measured over 6 timepoints collected between 0 and 12 hours of incubation by liquid-chromatography-coupled mass spectrometry (LC–MS); set-up: dose 5 uM, timepoint 0, 1.5, 3, 6, 9, 12 hours; conditions: 5 µM
[18] = as §2, with “the gut metagenome community of T-01 with ENA study accession number: PRJEB31790” for “Gemella morbillorum strain: DSM20572”, “7” for “6”; set-up: dose 5 uM, timepoint 0, 0.75, 1.5, 3, 6, 9, 12 hours; conditions: 5 µM
[19] = The drug is tested on Lactobacillus gasseri strain: DSM20243 for biotransformation under anaerobic condition. The drug concentrations were measured over 6 timepoints collected between 0 and 12 hours of incubation by liquid-chromatography-coupled mass spectrometry (LC–MS); set-up: dose 5 uM, timepoint 0, 1.5, 3, 6, 9, 12 hours; conditions: 5 µM
[20] = The drug is tested on Parabacteroides merdae strain: DSM19495 for biotransformation under anaerobic condition. The drug concentrations were measured over 6 timepoints collected between 0 and 12 hours of incubation by liquid-chromatography-coupled mass spectrometry (LC–MS); set-up: dose 5 uM, timepoint 0, 1.5, 3, 6, 9, 12 hours; conditions: 5 µM
[21] = The drug is tested on Dorea formicigenerans strain: DSM3992 for biotransformation under anaerobic condition. The drug concentrations were measured over 6 timepoints collected between 0 and 12 hours of incubation by liquid-chromatography-coupled mass spectrometry (LC–MS); set-up: dose 5 uM, timepoint 0, 1.5, 3, 6, 9, 12 hours; conditions: 5 µM
[22] = as §1, with “the gut metagenome community of P-03 with ENA study accession number: PRJEB31790” for “Gemella haemolysans strain: DSM107751”, “7” for “6”; set-up: dose 5 uM, timepoint 0, 0.75, 1.5, 3, 6, 9, 12 hours; conditions: 5 µM
[23] = The drug is tested on Bacteroides xylanisolvens strain: HM 722 for biotransformation under anaerobic condition. The drug concentrations were measured over 6 timepoints collected between 0 and 12 hours of incubation by liquid-chromatography-coupled mass spectrometry (LC–MS); set-up: dose 5 uM, timepoint 0, 1.5, 3, 6, 9, 12 hours; conditions: 5 µM
[24] = as §1, with “the gut metagenome community of A-06 with ENA study accession number: PRJEB31790” for “Gemella haemolysans strain: DSM107751”, “7” for “6”; set-up: dose 5 uM, timepoint 0, 0.75, 1.5, 3, 6, 9, 12 hours; conditions: 5 µM
[25] = The drug is tested on Roseburia intestinalis strain: DSM14610 for biotransformation under anaerobic condition. The drug concentrations were measured over 6 timepoints collected between 0 and 12 hours of incubation by liquid-chromatography-coupled mass spectrometry (LC–MS); set-up: dose 5 uM, timepoint 0, 1.5, 3, 6, 9, 12 hours; conditions: 5 µM
[26] = The drug is tested on Streptococcus mitis strain: DSM12643 for biotransformation under anaerobic condition. The drug concentrations were measured over 6 timepoints collected between 0 and 12 hours of incubation by liquid-chromatography-coupled mass spectrometry (LC–MS); set-up: dose 5 uM, timepoint 0, 1.5, 3, 6, 9, 12 hours; conditions: 5 µM
[27] = The drug is tested on Eubacterium hallii strain: DSM3353 for biotransformation under anaerobic condition. The drug concentrations were measured over 6 timepoints collected between 0 and 12 hours of incubation by liquid-chromatography-coupled mass spectrometry (LC–MS); set-up: dose 5 uM, timepoint 0, 1.5, 3, 6, 9, 12 hours; conditions: anaerobutyricum hallii, 5 µM
[28] = The drug is tested on Streptococcus sanguinis strain: DSM20567 for biotransformation under anaerobic condition. The drug concentrations were measured over 6 timepoints collected between 0 and 12 hours of incubation by liquid-chromatography-coupled mass spectrometry (LC–MS); set-up: dose 5 uM, timepoint 0, 1.5, 3, 6, 9, 12 hours; conditions: 5 µM
[29] = The drug is tested on Clostridium bolteae strain: DSM15670 for biotransformation under anaerobic condition. The drug concentrations were measured over 6 timepoints collected between 0 and 12 hours of incubation by liquid-chromatography-coupled mass spectrometry (LC–MS); set-up: dose 5 uM, timepoint 0, 1.5, 3, 6, 9, 12 hours; conditions: enterocloster bolteae, 5 µM
[30] = as §2, with “the gut metagenome community of A-08 with ENA study accession number: PRJEB31790” for “Gemella morbillorum strain: DSM20572”, “7” for “6”; set-up: dose 5 uM, timepoint 0, 0.75, 1.5, 3, 6, 9, 12 hours; conditions: 5 µM

Compound	Bacterial Biotransformation [1]	Bacterial Biotransformation [2]	Bacterial Biotransformation [3]	Bacterial Biotransformation [4]	Bacterial Biotransformation [5]	Bacterial Biotransformation [6]	Bacterial Biotransformation [7]	Bacterial Biotransformation [8]	Bacterial Biotransformation [9]	Bacterial Biotransformation [10]	Bacterial Biotransformation [11]	Bacterial Biotransformation [12]	Bacterial Biotransformation [13]	Bacterial Biotransformation [14]	Bacterial Biotransformation [15]	Bacterial Biotransformation [16]	Bacterial Biotransformation [17]	Bacterial Biotransformation [18]	Bacterial Biotransformation [19]	Bacterial Biotransformation [20]	other results
C[C@H]1C[C@H]2[C@@H]3CCC4=CC(=O)C=C[C@]4(C)[C@@]3(F)[C@@H](O)C[C@]2(C)[C@@]1(O)C(=O)CO [BETAMETHASONE]	Compound NOT metabolized	Compound NOT metabolized	Compound metabolized	Compound NOT metabolized	Compound NOT metabolized	Compound NOT metabolized	Compound NOT metabolized	Compound NOT metabolized	Compound NOT metabolized	Compound metabolized	Compound metabolized	Compound metabolized	Compound NOT metabolized	Compound metabolized	Compound NOT metabolized	Compound NOT metabolized	Compound NOT metabolized	Compound NOT metabolized	Compound NOT metabolized	Compound NOT metabolized	Bacterial Biotransformation [21]: Compound NOT metabolized; Bacterial Biotransformation [22]: Compound metabolized; Bacterial Biotransformation [23]: Compound NOT metabolized; Bacterial Biotransformation [24]: Compound metabolized; Bacterial Biotransformation [25]: Compound NOT metabolized; Bacterial Biotransformation [26]: Compound NOT metabolized; Bacterial Biotransformation [27]: Compound NOT metabolized; Bacterial Biotransformation [28]: Compound NOT metabolized; Bacterial Biotransformation [29]: Compound NOT metabolized; Bacterial Biotransformation [30]: Compound metabolized
CCCC1O[C@@H]2C[C@H]3[C@@H]4CCC5=CC(=O)C=C[C@]5(C)[C@H]4[C@@H](O)C[C@]3(C)[C@]2(C(=O)CO)O1 (stereo not given in full) [BUDESONIDE]	Compound NOT metabolized	Compound NOT metabolized	Compound NOT metabolized	Compound NOT metabolized	Compound NOT metabolized	Compound NOT metabolized	Compound NOT metabolized	Compound NOT metabolized	Compound NOT metabolized	Compound NOT metabolized	Compound metabolized	Compound metabolized	Compound NOT metabolized	Compound NOT metabolized	Compound NOT metabolized	Compound NOT metabolized	Compound NOT metabolized	Compound metabolized	Compound NOT metabolized	Compound NOT metabolized	Bacterial Biotransformation [21]: Compound NOT metabolized; Bacterial Biotransformation [22]: Compound metabolized; Bacterial Biotransformation [23]: Compound NOT metabolized; Bacterial Biotransformation [24]: Compound metabolized; Bacterial Biotransformation [25]: Compound NOT metabolized; Bacterial Biotransformation [26]: Compound NOT metabolized; Bacterial Biotransformation [27]: Compound NOT metabolized; Bacterial Biotransformation [28]: Compound NOT metabolized; Bacterial Biotransformation [29]: Compound NOT metabolized; Bacterial Biotransformation [30]: Compound metabolized
C[C@]12CCC(=O)C=C1CC[C@@H]1[C@@H]2C(=O)C[C@@]2(C)[C@H]1CC[C@]2(O)C(=O)CO [CORTISONE]	Compound NOT metabolized	Compound NOT metabolized	Compound metabolized	Compound NOT metabolized	Compound metabolized	Compound NOT metabolized	Compound NOT metabolized	Compound NOT metabolized	Compound metabolized	Compound metabolized	Compound metabolized	Compound metabolized	Compound NOT metabolized	Compound metabolized	Compound NOT metabolized	Compound metabolized	Compound NOT metabolized	Compound metabolized	Compound NOT metabolized	Compound NOT metabolized	Bacterial Biotransformation [21]: Compound NOT metabolized; Bacterial Biotransformation [22]: Compound metabolized; Bacterial Biotransformation [23]: Compound NOT metabolized; Bacterial Biotransformation [24]: Compound metabolized; Bacterial Biotransformation [25]: Compound NOT metabolized; Bacterial Biotransformation [26]: Compound NOT metabolized; Bacterial Biotransformation [27]: Compound NOT metabolized; Bacterial Biotransformation [28]: Compound NOT metabolized; Bacterial Biotransformation [29]: Compound NOT metabolized; Bacterial Biotransformation [30]: Compound metabolized
